What was measured:
Format in all cases: in vivo
Oryza sativa = experiment: Herbicidal post-emergence action, ORYSA
Description: (§1) • Seeds of monocotyledonous and dicotyledonous weed plants and crop plants are placed in wood-fiber pots in sandy loam and covered with soil. The test compounds, formulated in the form of wettable powders (WP) or emulsion concentrates (EC), are then, as an aqueous suspension with a water application rate of 600-800 l/ha (converted), with 0.1-0.2% of wetting agent added, applied at various dosages to the surface of the covering soil. • After the treatment, the pots are placed in a greenhouse and kept under good growth conditions for the test plants. […] Herbicidal Post-Emergence Action (Post) • Seeds of monocotyledonous and dicotyledonous weed and crop plants are placed in sandy loam in wood-fiber pots, covered with soil and cultivated in a greenhouse under good growth conditions. 2-3 weeks (stages 10-13 according to the BBCH scale) after sowing, the test plants are treated at a height of 5-10 cm. The test compounds, formulated as wettable powders (WP) or emulsion concentrates (EC), are then, with a water application rate of 600-800 l/ha (converted), with 0.1-0.2% of wetting agent added, sprayed at various dosages onto the green parts of the plants.
(§2) AVEFA: Avena fatua LOLMU: Lolium multiflorum SETVI: Setaria viridis CHEAL: Chenopodium album VIOTR: Viola tricolor VERPE: Veronica persica ORYSA: Oryza sativa TRZAS: Triticum aestivum ZEAMX: Zea mays ALOMY: Alopecurus myosuroides DIGSA: Digitaria sanguinalis ECHCG: Echinocloa crus-galli SORHA: Sorghum halepense AVESA: Avena sativa AMARE: Amaranthus retroflexus SINAL: Sinapis alba STEME: Stellaria media

Zea mays = experiment: Herbicidal post-emergence action, ZEAMX
Description: as §1, §2

Lolium multiflorum = experiment: Herbicidal post-emergence action, LOLMU
Description: (§3) 2. Herbicidal Post-Emergence Action
(§4) • Seeds of monocotyledonous and dicotyledonous weed and crop plants are placed in sandy loam in wood-fiber pots, covered with soil and cultivated in a greenhouse under good growth conditions. 2 to 3 weeks after sowing, the test plants are treated at the one-leaf stage. The test compounds, formulated as wettable powders (WP), are then, with a water application rate of 600 l/ha (converted), with 0.2% of wetting agent added, sprayed at various dosages onto the green parts of the plants. After the test plants have been kept in the greenhouse under optimum growth conditions for about 3 weeks, the activity of the preparations is rated visually in comparison to untreated controls (herbicidal activity in percent: 100% activity=the plants have died, 0% activity=like control plants). • In addition to the compounds mentioned above, the following compounds show an activity of 90-100% against Alopecurus myosuroides, Avena fatua, Digitaria sanguinalis, Echinocloa crus-galli, Lolium multiflorum, Setaria viridis and Sorghum halapense when applied by the post-emergence method at 320 g/ha: I-a-2, I-a-4, I-a-5, I-a-7, I-a-9, I-a-10, I-a-11, I-a-12, I-a-13, I-a-15. • In addition to the compounds mentioned above, the following compounds show an activity of 90-100% against Alopecurus myosuroides, Avena fatua, Echinocloa crus-galli, Lolium multiflorum and Setaria viridis when applied by the post-emergence method at 80 g/ha: I-a-1, I-b-2.
as §1, §2

Triticum aestivum = experiment: Herbicidal post-emergence action, TRZAS
Description: as §1, §2

Alopecurus myosuroides = experiment: Herbicidal post-emergence action, ALOMY
Description: as §3, §4, §1, §2

Avena fatua = experiment: Herbicidal post-emergence action, AVEFA
Description: as §3, §4, §1, §2

Tetranychus urticae = experiment: Tetranychus test (TETRUR spray treatment; OP-resistant in Example 10); conditions: for effect in % (spider mites killed): after 5 days, bean leaf discs
Description: Tetranychus Test (TETRUR Spray Treatment)
To produce a suitable preparation of active compound, 1 part by weight of active compound is mixed with the stated amount of solvent and emulsifier, and the concentrate is diluted with emulsifier-containing water to the desired concentration. Discs of bean leaves (Phaseolus vulgaris) which are infested by all stages of the greenhouse red spider mite (Tetranychus urticae) are sprayed with an active compound preparation of the desired concentration.
After 5 days, the effect in % is determined. 100% means that all of the spider mites have been killed; 0% means that none of the spider mites have been killed.
Tetranychus Test, OP-Resistant (TETRUR Spray Treatment)
To produce a suitable preparation of active compound, 1 part by weight of active compound is mixed with the stated amount of solvent and emulsifier, and the concentrate is diluted with emulsifier-containing water to the desired concentration.
Discs of bean leaves (Phaseolus vulgaris) which are infested by all stages of the greenhouse red spider mite (Tetranychus urticae) are sprayed with an active compound preparation of the desired concentration.
After the desired period of time, the activity in % is determined. 100% means that all of the spider mites have been killed; 0% means that none of the spider mites have been killed.

Myzus persicae = experiment: Myzus test (MYZUPE spray treatment); conditions: for effect in % (aphids killed): application rate 500 g/ha, after 5 days, Chinese cabbage leaf discs
Description: Myzus Test (MYZUPE Spray Treatment) [table] To produce a suitable preparation of active compound, 1 part by weight of active compound is mixed with the stated amount of solvent and emulsifier, and the concentrate is diluted with emulsifier-containing water to the desired concentration. Discs of Chinese cabbage (Brassica pekinensis) infected by all stages of the green peach aphid (Myzus persicae) are sprayed with an active compound preparation of the desired concentration. After 5 days, the effect in % is determined 100% means that all of the aphids have been killed; 0% means that none of the aphids have been killed. Myzus Test (MYZUPE Spray Treatment) To produce a suitable preparation of active compound, 1 part by weight of active compound is mixed with the stated amount of solvent and emulsifier, and the concentrate is diluted with emulsifier-containing water to the desired concentration. Discs of Chinese cabbage (Brassica pekinensis) infected by all stages of the green peach aphid (Myzus persicae) are sprayed with an active compound preparation of the desired concentration. After the desired period of time, the activity in % is determined. 100% means that all of the aphids have been killed; 0% means that none of the aphids have been killed.

Phaedon cochleariae = experiment: Phaedon test (PHAECO spray treatment); conditions: for effect in % (beetle larvae killed): application rate 500 g/ha, after 7 days, Chinese cabbage leaf discs; for inhibition at 100 g/ha: Phaedon cochleariae, 168 h, 7dat
Description: Phaedon Test ([…] Spray Treatment) [table] To produce a suitable preparation of active compound, 1 part by weight of active compound is mixed with the stated amount of solvent and emulsifier, and the concentrate is diluted with emulsifier-containing water to the desired concentration. Discs of Chinese cabbage (Brassica pekinensis) are sprayed with an active compound preparation of the desired concentration and, after drying, populated with larvae of the mustard beetle (Phaedon cochleariae). After 7 days, the effect in % is determined 100% means that all beetle larvae have been killed; 0% means that none of the beetle larvae have been killed. Phaedon Test ([…] Spray Treatment) To produce a suitable preparation of active compound, 1 part by weight of active compound is mixed with the stated amount of solvent and emulsifier, and the concentrate is diluted with emulsifier-containing water to the desired concentration. Discs of Chinese cabbage (Brassica pekinensis) are sprayed with an active compound preparation of the desired concentration and, after drying, populated with larvae of the mustard beetle (Phaedon cochleariae). After the desired period of time, the activity in % is determined. 100% means that all beetle larvae have been killed; 0% means that none of the beetle larvae have been killed.

Echinocloa crus-galli = experiment: Herbicidal post-emergence action, ECHCG
Description: as §3, §4, §1, §2

Setaria viridis = experiment: Herbicidal post-emergence action, SETVI; conditions: 80 g/ha
Description: as §3, §4, §1, §2

Boophilus microplus = Boophilus microplus test (BOOPMI injection); conditions: 20 μg/animal, after 7 days
Description: Boophilus Microplus Test (BOOPMI Injection) [table] To prepare an appropriate active compound formulation, 10 mg of active compound are mixed with 0.5 ml of solvent and the concentrate is diluted with solvent to the desired concentration. The solution of active compound is injected into the abdomen (Boophilus microplus), and the animals are transferred into dishes and kept in a climatized room. The activity is assessed by deposition of fertile eggs. After 7 days, the effect in % is determined. 100% means that none of the ticks has laid any fertile eggs.

Sorghum halepense = experiment: Herbicidal post-emergence action, SORHA; conditions: for % Activity SORHA: 80 g/ha
Description: as §3, §4, §1, §2

Digitaria sanguinalis = experiment: Herbicidal post-emergence action, DIGSA; conditions: 80 g/ha
Description: as §3, §4, §1, §2

CCc1cc(Cl)cc(OC)c1C1=C(OC(=O)C(C)C)C2(CCCCC2)NC1=O
% Activity ORYSA (Oryza sativa; concentration 80 g/ha 20 g/ha): 0%
% Activity ZEAMX (Zea mays; concentration 80 g/ha 20 g/ha): 20%
% Activity LOLMU (Lolium multiflorum; concentration 80 g/ha 20 g/ha): 50%
% Activity TRZAS (Triticum aestivum; concentration 80 g/ha 20 g/ha, first TRZAS column): 0%
% Activity TRZAS (Triticum aestivum; concentration 80 g/ha 20 g/ha, second TRZAS column): 0%
% Activity ALOMY (Alopecurus myosuroides; concentration 80 g/ha 20 g/ha): 40%
% Activity AVEFA (Avena fatua; concentration 80 g/ha 20 g/ha): 20%

CCC(C)(C)C(=O)OC1=C(c2cc(C)ccc2C)C(=O)N[C@]12CC[C@@H](OC)CC2
inhibition at 500 g/ha (Tetranychus urticae; Tetranychus urticae, 120 h, 500 g/ha, 5dat, OP-resistant): 0%
inhibition at 20 g/ha (Myzus persicae; Myzus persicae, 120 h, 20 g/ha, 5dat): 0%

CCc1cc(C)cc(Br)c1C1=C(OC(=O)C(C)C)NC(C)(C)C1=O [Example I-a-1]
effect in % (beetle larvae killed) (Phaedon cochleariae): 83%
effect in % (aphids killed) (Myzus persicae): 90%

CCOC(=O)OC1=C(c2cc(C)ccc2C)C(=O)N[C@@]12CCC[C@@H](COC)C2 [I-1-c-2 known from WO 07/048545]
inhibition at 100 g/ha (Phaedon cochleariae): 50%
inhibition at 4 g/ha (Myzus persicae; Myzus persicae, 120 h, 5dat): 0%

CCc1cc(Br)cc(C)c1C1=C(OC(=O)C(C)(C)C)NC2(CCC(OC)CC2)C1=O (centres unmarked) [I-a-5]
% Activity ECHCG (Echinocloa crus-galli; 20 g/ha): 80%

CCCc1cc(Br)cc(Br)c1C1=C(OC(=O)C(C)(C)C)NC(C)(C)C1=O [I-a-11]
effect in % (beetle larvae killed) (Phaedon cochleariae): 83%

CCc1cc(Br)cc(Cl)c1C1=C(OC(=O)C(C)(C)C)NC2(CCCCC2)C1=O [I-a-14]
% Activity ORYSA (Oryza sativa; 80 g/ha): 80%
% Activity ZEAMX (Zea mays; 80 g/ha): 100%
% Activity LOLMU (Lolium multiflorum; 80 g/ha): 100%
% Activity TRZAS (Triticum aestivum; 80 g/ha): 90%
% Activity SETVI (Setaria viridis): 100%
effect in % (beetle larvae killed) (Phaedon cochleariae): 100%
effect in % (spider mites killed) (Tetranychus urticae; application rate 500 g/ha): 90%
efficacy in % (deposition of fertile eggs) (Boophilus microplus): 80%
% Activity SORHA (Sorghum halepense): 100%
% Activity SORHA (Sorghum halepense; second SORHA column): 90%
% Activity ALOMY (Alopecurus myosuroides; 80 g/ha): 80%
% Activity DIGSA (Digitaria sanguinalis): 100%
% Activity AVEFA (Avena fatua; 80 g/ha): 100%
effect in % (aphids killed) (Myzus persicae): 90%
% Activity ECHCG (Echinocloa crus-galli; 80 g/ha): 100%

CCC(C)(C)C(=O)OC1=C(c2cc(C)ccc2C)C(=O)C2(CCC(OC)CC2)N1 (centres unmarked) [I-a-16]
% Activity TETRUR (Tetranychus urticae; 500 g/ha, 5dat, OP-resistant): 90%
effect in % (spider mites killed) (Tetranychus urticae; application rate 500 g/ha): 90%
% Activity MYZUPE (Myzus persicae; 20 g/ha, 5dat): 100%
effect in % (aphids killed) (Myzus persicae): 100%

CCOC(=O)OC1=C(c2cc(C)ccc2C)C(=O)[C@@]2(CCC[C@H](COC)C2)N1 [I-b-1]
inhibition at 100 g/ha (Phaedon cochleariae): 100%
effect in % (beetle larvae killed) (Phaedon cochleariae): 100%
effect in % (spider mites killed) (Tetranychus urticae; application rate 100 g/ha): 100%
efficacy in % (deposition of fertile eggs) (Boophilus microplus): 95%
inhibition at 4 g/ha (Myzus persicae; Myzus persicae, 120 h, 5dat): 90%
effect in % (aphids killed) (Myzus persicae): 100%

CCc1cc(Br)cc(C)c1C1=C(OC(=O)C(C)(C)C)C2(CCC(OC)CC2)NC1=O (centres unmarked) [I-b-2 known from WO 05/006125]
inhibition at 20 g/ha (Echinocloa crus-galli; Echinochloa crus-galli, post-emergence, 20 g/ha): 50%

CCOC(=O)OC1=C(c2cc(C)c(Cl)cc2C)C(=O)C2(CCC(COC)CC2)N1 (centres unmarked) [I-b-4]
effect in % (aphids killed) (Myzus persicae): 90%

CCOC(=O)OC1=C(c2c(CC)cc(C)cc2C2CC2)C(=O)C(C)(C)N1 [I-b-5]
effect in % (aphids killed) (Myzus persicae): 100%

CCc1cc(Br)cc(Cl)c1C1=C(OC(=O)C(C)(C)C)C2(CCCCC2)NC1=O [I-b-41 known from WO 04/065366]
inhibition at 80 g/ha (Oryza sativa; Oryza sativa, post-emergence, 80 g/ha): 0%
inhibition at 80 g/ha (Zea mays; Zea mays, post-emergence, 80 g/ha): 0%
inhibition at 80 g/ha (Lolium multiflorum; Lolium multiflorum, post-emergence, 80 g/ha): 0%
inhibition at 80 g/ha (Triticum aestivum; Triticum aestivum, post-emergence, 80 g/ha): 0%
inhibition at 80 g/ha (Setaria viridis; Setaria viridis, post-emergence): 0%
inhibition at 80 g/ha (Sorghum halepense; Sorghum halepense, post-emergence): 0%
inhibition at 80 g/ha (Alopecurus myosuroides; Alopecurus myosuroides, post-emergence, 80 g/ha): 0%
inhibition at 80 g/ha (Digitaria sanguinalis; Digitaria sanguinalis, post-emergence): 0%
inhibition at 80 g/ha (Avena fatua; Avena fatua, post-emergence, 80 g/ha): 0%
inhibition at 80 g/ha (Echinocloa crus-galli; Echinochloa crus-galli, post-emergence, 80 g/ha): 80%

— patent US9204640B2, “2-acyloxy-pyrrolin-4-ones” (BAYER INTELLECTUAL PROPERTY GMBH, priority 2011, dated 2015)
